Results on 21 molecules are retold here after patent US7745424B2, “Alkane diol derivatives as therapeutic agents for the treatment of bone conditions” (The Univeristy Court of the University of Aberdeen, priority 2001, dated 2010).

Structures are written as SMILES. Where only a bound is given, the exact number is not on record here.

The assay concerns macrophage cell line J774. Kind of assay: MTT macrophage J774 viability assay. The format is cell-based. Conditions: for IC50: Mus musculus, macrophage J774 viability; for IC50 / macrophage J774 viability, activity in words: MTT assay; for macrophage J774 viability, activity in words: range of concentrations (FIGS. 4-7). The method, then:
MTT (3-(4,5-dimethylthiazol-2-yl)-2,5-diphenyl tetrazolium bromide) has an […] colour and is soluble in the medium used for cell culture. The mitochondrial enzyme succinate dehydrogenase acts upon MTT in living cells to produce the insoluble purple coloured formazan. The amount of formazan produced, as measured by UV/visible spectroscopy, is proportional to the number of viable cells.
The medium was carefully removed using a needle without dislodging the crystal layer. 100 μL acidified isopropanol (4 M HCl 1:100 v/v in isopropanol) was added to each well and the purple crystals allowed to dissolve. The absorbance was measured in a plate reader at 540 nm, with 690 nm as reference. The controls were a deep purple colour, indicating a high number of live cells.
Addition of Compounds. […] These stock solutions were then diluted 100× in culture medium.
Background: Tetrazolium dyes change colour on reduction, which living cells bring about.

As usually defined, the IC50 is the midpoint of a concentration-inhibition curve. High values mean lower potency, low ones higher potency. With `O=C(OCCCCO)c1ccccc1-c1ccccc1` [ABD-0059, 1,4-Butanediol (biphenyl-2-carboxylic acid) ester], the “activity at 100 μM concentration” value is recorded as “little activity” and the IC50 was more than 100 µM.

As for `O=C(OCCCCO)c1ccc(Cc2ccccc2)cc1` [ABD-0034, 1,4-Butanediol mono(4-benzylbenzoic acid)Ester], the “activity at 100 μM concentration” value was “little activity” and the IC50 was more than 100 µM.

For the molecule `CC(=O)OCCCCOC(C)=O` [ABD-0006, 1,4-Butanediol di(acetic acid)Ester], the IC50 is more than 100 µM.

`O=C(Cc1ccc(-c2ccccc2)cc1)OCCCCCCO` [ABD-0044, 1,6-Hexanediol mono(biphenyl-4-yl-acetic acid)Ester]: the “macrophage J774 viability, activity in words” value (from here on “macrophage J774 viability”) is on record as “very active” and it took 28 µM to reach half-maximal inhibition (IC50).

Consider `COc1ccc(CC(=O)OCCCCO)cc1OC` [ABD-0033, 1,4-Butanediol mono(homoveratric acid)Ester], for which the “activity at 100 μM concentration” value is recorded as “little activity” and the IC50 is more than 100 µM.

As to `O=C(OCCCCCO)C(c1ccccc1)(c1ccccc1)c1ccccc1` [ABD-0030, 1,5-Pentandiol mono(triphenylacetic acid)Ester], the midpoint of inhibition, the IC50, lay at 40 µM.

Turning to `O=C(Cc1ccc(-c2ccccc2)cc1)OCCCO` [ABD-0041, 1,3-Propanediol mono(biphenyl-4-yl-acetic acid)Ester], the IC50 came to 75 µM.

In the case of `O=C(Cc1cccc2ccccc12)OCCCCO` [ABD-0032, 1,4-Butanediol mono(naphth-1-yl-acetic acid)Ester], the “activity at 100 μM concentration” value is “little activity” and the IC50 is more than 100 µM.

In the case of `O=C(OCCCCCCO)C(c1ccccc1)(c1ccccc1)c1ccccc1` [ABD-0031, 1,6-Hexandiol mono(triphenylacetic acid)Ester], the half-maximal inhibitory concentration (IC50) came out at 40 µM.

`O=C(OCCCCO)c1ccccc1` [ABD-0008, 1,4-Butanediol mono(benzoic acid)Ester]: the IC50 is more than 100 µM.

For `CCCC(=O)OCCCCOC(=O)CCC` [ABD-0007, 1,4-Butanediol di(butanoic acid)Ester], the IC50 is more than 100 µM.

In turn, `CCCCOC(=O)C(C)c1ccc(CC(C)C)cc1` (stereo not shown) [ABD-0035, Butyl [2-(4-isobutylphenyl)Propionic acid] ester] registered an IC50 of 72 µM.

In the case of `CC(C)Cc1ccc(C(C)C(=O)OCCCO)cc1` (stereo not shown) [ABD-0037, 1,3-Propanediol mono[2-(4-isobutylphenyl)Propionic acid]ester], half-maximal inhibition (IC50) was put at 72 µM.

As to `O=C(Cc1ccccc1)OCCCCOC(=O)Cc1ccccc1` [ABD-0014, 1,4-Butanediol di(phenylacetic acid)Ester], the IC50 was more than 100 µM.

In the case of `CC(C)Cc1ccc(C(C)C(=O)OCCCCCCO)cc1` (stereo not shown) [ABD-0039, 1,6-Hexanediol mono[2-(4-isobutylphenyl)Propionic acid]ester], the IC50 amounted to 72 µM.

With `CC(C)Cc1ccc(C(C)C(=O)OCCCCO)cc1` (stereo not shown) [ABD-0036, 1,4-Butanediol mono[2-(4-isobutylphenyl)Propionic acid]ester], the “macrophage J774 viability” value was “most active” and the IC50 amounted to 52 µM.

Regarding `O=C(OCCCCOC(=O)C1CCCCC1)C1CCCCC1` [ABD-0019, 1,4-Butanediol di(cyclclohexanecarboxylic acid)Ester], the IC50 is more than 100 µM.

Regarding `O=C(OCCCO)c1ccc(-c2ccccc2)cc1` [ABD-0057, 1,3-Propanediol mono(biphenyl-4-carboxylic acid)Ester], the IC50 was more than 100 µM.

Regarding `CCCCOC(=O)c1ccc(-c2ccccc2)cc1` [ABD-0053, Butyl (biphenyl-4-carboxylic acid) ester], the “macrophage J774 viability” value is listed as “very little activity” and the IC50 was more than 100 µM.

`O=C(Cc1ccc(-c2ccccc2)cc1)OCCCCCO` [ABD-0043, 1,5-Pentanediol mono(biphenyl-4-yl-acetic acid)Ester] gave an IC50 of more than 100 µM.

As to `O=C(Cc1ccccc1)OCCCCCCOC(=O)Cc1ccccc1` [ABD-0017, 1,6-Hexanediol di(phenylacetic acid)Ester], the concentration for half-maximal inhibition (IC50) was more than 100 µM.
